Test results: ChEMBL document CHEMBL1150388, “Discovery of orally active pyrrolopyridine- and aminopyridine-based Met kinase inhibitors” (Bioorg Med Chem Lett, 2008)
Values belong to the compound of their own block, whether it stands above or below them.

Key:
[1] = target: Hepatocyte growth factor receptor (Homo sapiens, UniProt P08581); assay: Inhibition of Met kinase
[2] = Antiproliferative activity against human GTL16 cells; format: functional, cell-based; conditions: GTL 16
Cytochrome P450 3A4 = Cytochrome P450 3A4 (Homo sapiens, UniProt P08684); assay: Inhibition of human CYP3A4; format: ADME
Liver microsomes = assay: Metabolic stability in human liver microsomes at 3 uM after 10 mins; format: ADME, Microsome
[3] = Metabolic stability in mouse liver microsomes at 3 uM after 10 mins; format: ADME, Microsome
[4] = Cmax in mouse at 50 mg/kg, po; format: ADME, organism-based; design: dose 50 mg/kg, route oral; conditions: in vivo
[5] = Tmax in mouse at 50 mg/kg, po; format: ADME, organism-based; design: dose 50 mg/kg, route oral; conditions: in vivo
[6] = AUC (0 to 8 hrs) in mouse at 50 mg/kg, po; format: ADME, organism-based; design: time < 8 hr, dose 50 mg/kg, route oral; conditions: plasma
[7] = Antitumor activity in human GTL16 cells xenografted athymic mouse 50 mg/kg, po daily once for 14 days; format: functional; conditions: GTL 16, 336 h, read-out: TGI
[8] = Protein binding in mouse plasma; format: ADME, cell-free; conditions: read-out: PPB (converted)
[9] = AUC (0 to 4 hrs) in mouse at 50 mg/kg, po; format: ADME, organism-based; design: time < 4 hr, dose 50 mg/kg, route oral; conditions: plasma
[10] = Antitumor activity in human GTL16 cells xenografted athymic mouse 100 mg/kg, po daily once for 14 days; format: functional; conditions: GTL 16, 336 h, read-out: TGI
[11] = Antitumor activity in human GTL16 cells xenografted athymic mouse 25 mg/kg, po daily once for 14 days; format: functional; conditions: GTL 16, 336 h, read-out: TGI
[12] = Antitumor activity in human GTL16 cells xenografted athymic mouse 75 mg/kg, po daily once for 14 days; format: functional; conditions: GTL 16, 336 h, read-out: TGI
[13] = Antitumor activity in human GTL16 cells xenografted athymic mouse 125 mg/kg, po daily once for 14 days; format: functional; conditions: GTL 16, 336 h, read-out: TGI

Chain of Cytochrome P450 3A4 (P08684 whole entry): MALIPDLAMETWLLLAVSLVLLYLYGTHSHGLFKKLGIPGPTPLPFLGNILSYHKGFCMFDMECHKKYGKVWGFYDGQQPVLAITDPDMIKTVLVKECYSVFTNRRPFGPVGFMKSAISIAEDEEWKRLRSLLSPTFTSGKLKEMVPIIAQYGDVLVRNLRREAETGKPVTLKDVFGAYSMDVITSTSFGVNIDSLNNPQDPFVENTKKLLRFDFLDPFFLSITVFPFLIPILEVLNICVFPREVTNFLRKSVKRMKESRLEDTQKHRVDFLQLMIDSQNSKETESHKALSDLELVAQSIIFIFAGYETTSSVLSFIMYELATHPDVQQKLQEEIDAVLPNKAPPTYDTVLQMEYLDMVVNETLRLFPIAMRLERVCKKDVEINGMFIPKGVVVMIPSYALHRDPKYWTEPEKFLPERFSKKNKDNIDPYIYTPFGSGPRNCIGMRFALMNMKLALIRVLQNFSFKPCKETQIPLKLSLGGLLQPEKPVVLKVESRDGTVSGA
Chain of Hepatocyte growth factor receptor (P08581 whole entry): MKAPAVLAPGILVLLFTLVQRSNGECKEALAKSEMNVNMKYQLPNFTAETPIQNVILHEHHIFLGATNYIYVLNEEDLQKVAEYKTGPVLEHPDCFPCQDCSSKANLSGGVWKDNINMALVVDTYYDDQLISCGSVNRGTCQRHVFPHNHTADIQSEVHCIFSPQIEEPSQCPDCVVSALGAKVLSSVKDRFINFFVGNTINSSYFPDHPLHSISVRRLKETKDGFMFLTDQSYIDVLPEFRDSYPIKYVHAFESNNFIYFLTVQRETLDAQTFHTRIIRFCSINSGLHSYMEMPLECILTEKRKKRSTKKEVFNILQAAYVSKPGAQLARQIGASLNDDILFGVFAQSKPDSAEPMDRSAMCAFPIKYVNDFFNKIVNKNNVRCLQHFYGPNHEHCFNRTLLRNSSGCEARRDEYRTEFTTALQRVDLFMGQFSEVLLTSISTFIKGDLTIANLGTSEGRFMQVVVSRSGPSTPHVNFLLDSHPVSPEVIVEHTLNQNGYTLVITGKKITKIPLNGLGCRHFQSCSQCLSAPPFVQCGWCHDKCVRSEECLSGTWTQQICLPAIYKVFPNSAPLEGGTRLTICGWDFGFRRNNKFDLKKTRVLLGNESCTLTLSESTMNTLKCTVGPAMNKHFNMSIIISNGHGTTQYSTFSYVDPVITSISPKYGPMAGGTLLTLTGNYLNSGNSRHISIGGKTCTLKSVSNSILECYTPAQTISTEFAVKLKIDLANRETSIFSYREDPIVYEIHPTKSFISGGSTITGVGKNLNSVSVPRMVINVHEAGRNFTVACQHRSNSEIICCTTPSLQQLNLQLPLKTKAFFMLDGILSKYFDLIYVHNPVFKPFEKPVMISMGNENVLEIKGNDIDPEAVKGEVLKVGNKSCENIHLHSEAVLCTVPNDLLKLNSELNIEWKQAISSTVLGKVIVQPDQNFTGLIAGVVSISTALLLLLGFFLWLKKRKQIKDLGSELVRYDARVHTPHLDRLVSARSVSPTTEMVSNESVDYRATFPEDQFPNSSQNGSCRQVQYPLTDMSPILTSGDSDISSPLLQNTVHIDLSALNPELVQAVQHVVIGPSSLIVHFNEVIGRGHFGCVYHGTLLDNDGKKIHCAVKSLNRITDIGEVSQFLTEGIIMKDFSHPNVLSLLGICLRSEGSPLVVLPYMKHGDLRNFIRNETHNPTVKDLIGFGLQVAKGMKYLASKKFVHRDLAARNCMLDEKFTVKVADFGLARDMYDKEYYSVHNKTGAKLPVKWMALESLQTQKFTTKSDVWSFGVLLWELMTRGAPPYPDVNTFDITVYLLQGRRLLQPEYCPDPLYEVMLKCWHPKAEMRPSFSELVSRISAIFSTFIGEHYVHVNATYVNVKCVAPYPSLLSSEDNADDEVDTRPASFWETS

SMILES: Nc1cc(Oc2ccc(NC(=O)CC(=O)Nc3ccc(F)cc3)cc2F)ccn1
IC50 [1]: 100 nM
IC50 [2]: 1490 nM

SMILES: CN(C)CC(=O)c1c[nH]c2nccc(Oc3ccc(NC(=O)NC(=O)Cc4ccc(F)cc4)cc3F)c12
IC50 [1]: 44 nM
IC50 [2]: 1050 nM

SMILES: O=C(CC(=O)Nc1ccc(Oc2ccnc3[nH]ccc23)c(F)c1)Nc1ccc(F)cc1
IC50 [1]: 64 nM
IC50 [2]: 1060 nM

SMILES: O=C(Cc1ccc(F)cc1)NC(=O)Nc1ccc(Oc2ccnc3[nH]cc(C(=O)NCc4cccnc4)c23)c(F)c1
IC50 [1]: 11 nM
IC50 [2]: 650 nM

SMILES: O=C(Cc1ccc(F)cc1)NC(=O)Nc1ccc(Oc2ccnc3[nH]cc(C(=O)CN4CCC(O)C4)c23)c(F)c1 (stereo not drawn)
IC50 [1]: 19 nM
IC50 [2]: 1470 nM

SMILES: O=C(Cc1ccc(F)cc1)NC(=O)Nc1ccc(Oc2ccnc3[nH]ccc23)c(F)c1
IC50 [1]: 110 nM
IC50 [2]: 150 nM
Stability (Liver microsomes): 0.015 nmol/min/mg
Rate of metabolism [3]: 0.035 nmol/min/mg
Cmax [4]: 2.4 µM
Tmax [5]: 4 h
AUC(0-t) at 4 h [9]: 6 µM·h

SMILES: CN1CCN(CC(=O)c2c[nH]c3nccc(Oc4ccc(NC(=O)NC(=O)Cc5ccc(F)cc5)cc4F)c23)CC1
IC50 [1]: 11 nM
IC50 [2]: 2220 nM

SMILES: Nc1cc(Oc2ccc(NC(=O)NC(=O)Cc3ccc(F)cc3)cc2F)ccn1
IC50 [1]: 35 nM
IC50 [2]: 290 nM
Stability (Liver microsomes): 0 nmol/min/mg
Rate of metabolism [3]: 0.018 nmol/min/mg
Cmax [4]: 10.5 µM
Tmax [5]: 4 h
AUC(0-t) at 4 h [9]: 33 µM·h
inhibition in vivo at 25 mg/kg [11]: < 50%
inhibition in vivo at 75 mg/kg [12]: 80%
inhibition in vivo at 125 mg/kg [13]: 98%

Stronger by IC50 [1], values ahead:

IC50 [1]: 7 nM
SMILES: Nc1nc(-c2c[nH]c3nccc(Oc4ccc(NC(=O)NC(=O)Cc5ccc(F)cc5)cc4F)c23)cs1
IC50 [2]: 30 nM

IC50 [1]: 5 nM
SMILES: COC(=O)c1c[nH]c2nccc(Oc3ccc(NC(=O)NC(=O)Cc4ccc(F)cc4)cc3F)c12
IC50 [2]: 180 nM

IC50 [1]: 5 nM
IC50 (Cytochrome P450 3A4): 37000 nM
Stability (Liver microsomes): 0 nmol/min/mg
Rate of metabolism [3]: 0.042 nmol/min/mg
Cmax [4]: 16 µM
Tmax [5]: 4 h
AUC(0-t) at 8 h [6]: 85 µM·h
fraction unbound [8]: 0.0002
SMILES: Nc1nccc(Oc2ccc(NC(=O)NC(=O)Cc3ccc(F)cc3)cc2F)c1C#Cc1ccccn1
IC50 [2]: 40 nM
inhibition in vivo at 50 mg/kg [7]: < 50%

IC50 [1]: 5 nM
IC50 (Cytochrome P450 3A4): 1800 nM
SMILES: NCC#Cc1c(Oc2ccc(NC(=O)NC(=O)Cc3ccc(F)cc3)cc2F)ccnc1N
IC50 [2]: 250 nM

IC50 [1]: 4 nM
SMILES: O=C(Cc1ccc(F)cc1)NC(=O)Nc1ccc(Oc2ccnc3[nH]cc(CO)c23)c(F)c1
IC50 [2]: 180 nM

IC50 [1]: 4 nM
IC50 (Cytochrome P450 3A4): 2700 nM
SMILES: CN(C)CC#Cc1c(Oc2ccc(NC(=O)NC(=O)Cc3ccc(F)cc3)cc2F)ccnc1N
IC50 [2]: 220 nM

IC50 [1]: 3 nM
IC50 (Cytochrome P450 3A4): 700 nM
SMILES: Nc1nccc(Oc2ccc(NC(=O)NC(=O)Cc3ccc(F)cc3)cc2F)c1C#CCO
IC50 [2]: 30 nM

IC50 [1]: 2 nM
IC50 (Cytochrome P450 3A4): 800 nM
SMILES: C#Cc1c(Oc2ccc(NC(=O)NC(=O)Cc3ccc(F)cc3)cc2F)ccnc1N
IC50 [2]: 40 nM

IC50 [1]: 2 nM
Stability (Liver microsomes): 0.038 nmol/min/mg
Rate of metabolism [3]: 0.049 nmol/min/mg
Cmax [4]: 6 µM
Tmax [5]: 4 h
AUC(0-t) at 8 h [6]: 34 µM·h
SMILES: O=C(Cc1ccc(F)cc1)NC(=O)Nc1ccc(Oc2ccnc3[nH]cc(-c4cccnc4)c23)c(F)c1
IC50 [2]: 20 nM
inhibition in vivo at 50 mg/kg [7]: 67%
inhibition in vivo at 100 mg/kg [10]: 88%

IC50 [1]: 2 nM
Stability (Liver microsomes): 0.016 nmol/min/mg
Rate of metabolism [3]: 0.036 nmol/min/mg
Cmax [4]: 2.1 µM
Tmax [5]: 4 h
AUC(0-t) at 8 h [6]: 11.4 µM·h
SMILES: O=C(Cc1ccc(F)cc1)NC(=O)Nc1ccc(Oc2ccnc3[nH]c(-c4cccnc4)cc23)c(F)c1
IC50 [2]: 30 nM
